Data on 2 compounds can be found in US7625892B2, “Pharmaceutical compositions for the treatment of diseases related to neurotrophines” (Mimetech S.r.l., priority 2002, dated 2009).

Read-outs that look alike come from different tables or passages of the source.

Assay [1] relates to NGF specific surface receptor on PC12 cells. The assay can be described thus: Displacement of 125I-NGF binding to PC12 cells. The conditions noted are these: 0.1 nM 125I-NGF. Here is the method:
The ability of selected compounds to displace the binding of NGF to specific surface receptor was evaluated through the classic binding techniques of iodinated ligand.
PC12 cells were detached from tissue flasks with PBS-EDTA, washed with HKR medium (10 mM Hepes, 125 mM NaCl, 4.8 mM KCl, 1.3 mM CaCl2, 1.2 mM MgSO4, 1.2 mM KH2PO4, 1 g/l glucose, 1 g/l BSA) and incubated in triplicate in HKR medium with 0.1 nM ^125I-NGF in the presence or absence of variable concentrations of the compounds to be assayed or of hrNGF as internal standard. Displacement curve was obtained by analyzing the resultant cell bound radioactivity in the presence of the compounds or of hrNGF with adequate software (Graphit 4).

In a further assay the test system is VGF. Put plainly: Induction of VGF production by PC12 cells (western blot). The assay is classed as cell-based. The conditions noted are these: FIG. 3. Here is the method: The ability of 3-aza-bicyclo(3.2.1)octanes of formula (I) and their dimeric forms of formula (II) and (III) with substitution reported in Table 1-4 was tested also as ability to induce VGF production by PC12 cells. […] Cells were lysed in 0.25% NP-40 in PBS supplemented with 1 mM PMSF (phenyl-methyl) and 1 mM leupeptin and protein concentration was measured in each sample by Bradford assay. Equal amounts of proteins (30 μg) were loaded in 8% SDS-polyacrilamide gel, electrophoresed, blotted onto nitrocellulose membrane and stained with monoclonal antibodies anti-VGF followed by peroxidase-conjugated anti-mouse IgG. Reaction was visualized by Enhanced Chemiluminiscent Reagent (ECL, Amersham) following the manufacturer instruction.
VGF is induced by the selected compounds as well as by hrNGF.

In another assay the target is T1, Trk-A (Rattus norvegicus, UniProt P35739).
T1 construct: endogenous in cells; host or cells: PC12 cells
The assay can be described thus: Trk-A autophosphorylation in PC12 cells. It is filed as cell-based. The note with it: 10 μM compound, 30 min, FIG. 5. Here is the method:
To evaluate the ability of the compounds 3-aza-bicyclo(3.2.1)octanes of formula (I) and their dimeric forms of formula (II) and (III) reported in Table 14 to induce Trk-A autophosphorylation, PC12 cells were cultured in medium supplemented with 5% FBS for 48 hours, washed and equilibrated in serum-free medium for 2 hours. 2.5×10^6 cells were then stimulated with 10 μM of selected compounds for 30 min or with 10 nM hrNGF as positive control. Cells were then lysed with 0.5% Triton-X100 in PBS supplemented with protease inhibitors (PMSF, aprotinin, pepstatin, leupeptin) and phosphatase inhibitors. Protein concentrations in each sample was evaluated by Bradford assay and equal amounts (50 μg) of proteins were loaded onto SDS-polyacrilamide gel, electrophoresed and blotted onto nitrocellulose membrane. Membranes was stained with rabbit anti-(Tyr 490 and Tyr 674/675) phosphorylated Trk-A (Cell Signaling Technology) used at the final dilution of 1:1000. After washing, membranes were stained with HRP-conjugated anti-rabbit IgG and the reaction was visualised by using ECL reagents following manufacturing instructions.

T1 sequence (P35739 33-799): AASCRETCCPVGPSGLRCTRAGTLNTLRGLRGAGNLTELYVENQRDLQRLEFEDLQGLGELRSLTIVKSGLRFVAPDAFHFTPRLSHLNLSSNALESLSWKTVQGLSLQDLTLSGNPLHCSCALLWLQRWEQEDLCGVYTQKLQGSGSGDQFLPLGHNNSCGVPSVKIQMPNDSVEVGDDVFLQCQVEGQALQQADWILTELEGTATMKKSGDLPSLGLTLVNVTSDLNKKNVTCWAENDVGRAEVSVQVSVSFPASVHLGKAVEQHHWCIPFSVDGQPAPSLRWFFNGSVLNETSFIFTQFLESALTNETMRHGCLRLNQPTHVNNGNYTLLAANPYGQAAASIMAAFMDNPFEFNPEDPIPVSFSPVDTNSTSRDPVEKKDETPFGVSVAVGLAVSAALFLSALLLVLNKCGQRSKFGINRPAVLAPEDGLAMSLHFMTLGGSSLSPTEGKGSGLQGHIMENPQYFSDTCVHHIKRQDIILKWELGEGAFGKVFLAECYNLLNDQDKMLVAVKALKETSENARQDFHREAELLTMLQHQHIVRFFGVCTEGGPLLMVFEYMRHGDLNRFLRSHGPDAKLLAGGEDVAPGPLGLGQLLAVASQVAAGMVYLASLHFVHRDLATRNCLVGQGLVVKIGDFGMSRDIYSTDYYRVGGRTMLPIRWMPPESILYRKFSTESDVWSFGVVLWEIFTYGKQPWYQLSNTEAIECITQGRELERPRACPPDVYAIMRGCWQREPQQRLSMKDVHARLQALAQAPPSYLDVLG

With “hrNGF: human recombinant (hr)NGF used as internal standard”, in assay [1] (FIG. 4b, read-out: Kd (displacement curve, hrNGF as competitor)), the dissociation constant (Kd) amounted to 0.114 nM. Moreover, the VGF production induced result in the assay on VGF (10 nM hrNGF) is recorded as “induced”.
For `COC(=O)C1OC2OC1C(=O)N(Cc1ccccc1)C2Cc1ccccc1` (centres unmarked) [Compound 9], the Kd in assay [1] (FIG. 4a, read-out: Kd (displacement curve, compound used as competitor)) stood at 165 nM. In addition, the VGF production induced entry in the assay with VGF (10 μM compound) was “induced”. In addition, the “induction of Trk-A autophosphorylation” value at Trk-A was “able to induce Trk-A autophosphorylation”.
